Test results reported in paper PMC12005229, “Final results from the phase Ia/Ib study of the novel bromodomain and extra-terminal domain inhibitor, BI 894999, in patients with advanced solid tumors or diffuse large B-cell lymphoma” (ESMO Open, 2025).
“And” between values parts separate entries of the source, which are not always exact repeats. Equal entries are not always repeated. “Also recorded” adds a separate entry of the source.

Assays:
[1] = system: colorectal cancer (CRC) cell lines; design: method as in earlier work; settings: cited from earlier work
patients with DLBCL = assay: phase Ia DLBCL extension: DLTs, MTD, adverse events, exposure; type: in vivo; settings: for DLT grade ≥3 / DLT / DLT duration / DLT grade / DLT outcome: individual patient events
Excerpt: The extension to the phase Ia dose escalation evaluated schedules B and C for patients with DLBCL.

[2] = review of non-Good Laboratory Practice preclinical assays for cardiac toxicity; settings: review prompted by elevated troponin T
Excerpt: Some patients experienced elevated troponin T levels, leading to a review of troponin T levels, electrocardiogram data, clinical summaries, and non-Good Laboratory Practice preclinical assays. […] This also corresponded with a lack of cardiotoxicity reported in preclinical studies in animals[17] and this was not a toxicity previously reported with BET inhibitors.[35] It was concluded that the cause of troponin T elevation may be multifactorial, but not clinically significant to preclude further clinical development.[17]

[3] = DLBCL phase Ia extension n = 18
[4] = DLBCL, on-treatment period, schedule B 2.0 mg
[5] = DLBCL, on-treatment period, schedule C 4.0/2.0 mg
[6] = DLBCL, on-treatment period, schedule C 5.0/2.5 mg
[7] = DLBCL, schedule B 1.5 mg, MTD evaluation period
[8] = DLBCL, schedule B 2.0 mg, MTD evaluation period
[9] = DLBCL, schedule B 2.5 mg, MTD evaluation period
[10] = phase Ia DLBCL, MTD evaluation period

## CNc1nc(-c2nc3ccc(N4CCN(C)CC4)cc3n2Cc2ccccc2)cn2c(C)nnc12 [BI 894999]
[1]
  activity against colorectal cancer (CRC) cell lines: demonstrated activity
Patients with DLBCL; [3]
  AEs leading to death: 1 (5.6) n (%)
  AEs leading to discontinuation of trial drug: 4 (22.2) n (%)
  AEs leading to dose reduction: 3 (16.7) n (%)
  Any AE: 18 (100) n (%)
  DLT in on-treatment period: 8 (44.4) n (%)
  Treatment-related AEs: 15 (83.3) n (%)
  Treatment-related serious AEs: 2 (11.1) n (%)
Patients with DLBCL; DLBCL phase Ia n = 18
  Anemia, treatment-related AE, any grade: 5 (27.8) n (%)
  Anemia, treatment-related AE, grade ≥3: 5 (27.8) n (%)
  Asthenia, treatment-related AE, any grade: 2 (11.1) n (%)
  Asthenia, treatment-related AE, grade ≥3: 0 n (%)
  Decreased appetite, treatment-related AE, any grade: 4 (22.2) n (%)
  Decreased appetite, treatment-related AE, grade ≥3: 0 n (%)
  Decreased platelet count, treatment-related AE, any grade: 2 (11.1) n (%)
  Decreased platelet count, treatment-related AE, grade ≥3: 2 (11.1) n (%)
  Diarrhea, treatment-related AE, any grade: 9 (50.0) n (%)
  Diarrhea, treatment-related AE, grade ≥3: 0 n (%)
  Dysgeusia, treatment-related AE, any grade: 2 (11.1) n (%)
  Dysgeusia, treatment-related AE, grade ≥3: 0 n (%)
  Epistaxis, treatment-related AE, any grade: 2 (11.1) n (%)
  Epistaxis, treatment-related AE, grade ≥3: 0 n (%)
  Fatigue, treatment-related AE, any grade: 4 (22.2) n (%)
  Fatigue, treatment-related AE, grade ≥3: 0 n (%)
  Hematoma, treatment-related AE, any grade: 2 (11.1) n (%)
  Hematoma, treatment-related AE, grade ≥3: 0 n (%)
  Muscle spasms, treatment-related AE, any grade: 2 (11.1) n (%)
  Muscle spasms, treatment-related AE, grade ≥3: 0 n (%)
  Nausea, treatment-related AE, any grade: 5 (27.8) n (%)
  Nausea, treatment-related AE, grade ≥3: 0 n (%)
  Neutropenia, treatment-related AE, any grade: 4 (22.2) n (%)
  Neutropenia, treatment-related AE, grade ≥3: 3 (16.7) n (%)
  Thrombocytopenia, treatment-related AE, any grade: 11 (61.1) n (%)
  Thrombocytopenia, treatment-related AE, grade ≥3: 8 (44.4) n (%)
  Troponin increased, treatment-related AE, any grade: 2 (11.1) n (%)
  Troponin increased, treatment-related AE, grade ≥3: 1 (5.6) n (%)
Patients with DLBCL; DLBCL, on-treatment period, schedule B 1.5 mg
  DLT grade ≥3: Increased troponin
Patients with DLBCL; [4]
  DLT duration, melena: 7 days
  DLT grade, melena: 3
  DLT grade ≥3: Thrombocytopenia; also recorded: Melena
Patients with DLBCL; DLBCL, on-treatment period, schedule B 2.5 mg
  DLT grade ≥3: Thrombocytopenia; also recorded: Sepsis; also recorded: Febrile neutropenia
Patients with DLBCL; [5]
  DLT grade, decreased platelet count: 4
  DLT grade ≥3: Decreased platelet
Patients with DLBCL; [6]
  DLT duration, thrombocytopenia: 8 days
  DLT grade, neutropenia: 4
  DLT grade, thrombocytopenia: 4
  DLT grade ≥3: Neutropenia; also recorded: Thrombocytopenia
Patients with DLBCL; [7]
  DLT: Increased troponin
  DLT duration: 5 days
  DLT grade: 3
  DLT outcome: Recovered
Patients with DLBCL; [8]
  DLT: Thrombocytopenia
  DLT duration: 11 days
  DLT grade: 4
  DLT outcome: Not recovered
Patients with DLBCL; [9]
  DLT: Thrombocytopenia; also recorded: Sepsis; also recorded: Febrile neutropenia
  DLT duration: 5 days and 6 days and 7 days and 2 days
  DLT grade: 4 and 3
  DLT outcome: Not recovered; also recorded: Recovered
Patients with DLBCL; DLBCL, schedule B (days 1-14/21)
  maximum tolerated dose (MTD): 1.5 mg
Patients with DLBCL; DLBCL, schedule C
  maximum tolerated dose (MTD): not declared
Patients with DLBCL; phase Ia DLBCL
  anemia, grade ≥3 treatment-related AE: 27.8%
  anemia, treatment-related AE of any grade: 27.8%
  decreased platelet count, grade ≥3 treatment-related AE: 11.1%
  decreased platelet count, treatment-related AE of any grade: 11.1%
  diarrhea, treatment-related AE of any grade: 50.0%
  discontinuation because of DLT: 11.1%
  discontinuation because of other AEs: 5.6%
  discontinuation because of progressive disease: 83.3%
  dose discontinuations due to AEs: 22.2%
  dose reductions due to AEs: 16.7%
  fatigue, treatment-related AE of any grade: 22.2%
  increased troponin, treatment-related AE of any grade: 11.1%
  lymph node pain leading to dose discontinuation: 5.6%
  median time to first dose reduction: 36.0 days
  nausea, treatment-related AE of any grade: 27.8%
  neutropenia leading to dose discontinuation: 5.6%
  neutropenia, grade ≥3 treatment-related AE: 16.7%
  neutropenia, treatment-related AE of any grade: 22.2%
  patients who underwent dose reductions: 16.7%
  patients with AEs of any grade: 100%
  patients with treatment-related AEs: 83.3%
  thrombocytopenia leading to dose discontinuation: 11.1%
  thrombocytopenia, grade ≥3 treatment-related AE: 44.4%
  thrombocytopenia, treatment-related AE of any grade: 61.1%
Patients with DLBCL; [10]
  DLT grade 3 febrile neutropenia: 7.7%
  DLT grade 3 increased troponin: 7.7%
  DLT grade 4 sepsis: 7.7%
  DLT grade 4 thrombocytopenia: 23.1%
  assessable patients with DLTs: 4/17
Patients with DLBCL; phase Ia DLBCL, schedule B
  total patients with DLTs during the on-treatment period: 5 n
Patients with DLBCL; phase Ia DLBCL, schedule B 1.5 mg, MTD evaluation period
  patients with DLTs: 1 n
Patients with DLBCL; phase Ia DLBCL, schedule B 2.0 mg, MTD evaluation period
  patients with DLTs: 1 n
Patients with DLBCL; phase Ia DLBCL, schedule B 2.5 mg, MTD evaluation period
  patients with DLTs: 2 n
Patients with DLBCL; phase Ia DLBCL, schedule B (n = 13), MTD evaluation period
  patients with DLTs: 30.8%
Patients with DLBCL; phase Ia DLBCL, schedule C
  total patients with DLTs during the on-treatment period: 3 n
Patients with DLBCL; phase Ia DLBCL, schedule C, MTD period
  patients with DLTs: No patients receiving schedule C experienced DLTs; also recorded: a No DLBCL patients on schedule C experienced DLTs on BI 894999
[2]
  preclinical evidence of cardiac toxicity: no preclinical evidence of potential cardiac toxicity
